The values below come from PubChem BioAssay AID179 (DTP/NCI, 2004).

In the test the test system is CEM cells HIV-1 protection, formazan growth assay. Put plainly: NCI AIDS Antiviral Assay. As to conditions: for IC50: measured here: growth of uninfected CEM cells. The method, boiled down: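 Steps: treat uninfected and HIV-1-infected human CEM cells at five drug levels; quantify growth by soluble formazan; retest any compound reaching 50% protection; classify actives from the retest.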

SMILES strings stand for the structures. Calls of active or inactive are those of the source.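 Rule for the calls: active = compounds giving half or more protection of infected cells from virus-caused growth loss, again on retest; inactive = the rest.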 Where a SMILES comes first, the peptide text is derived from it. [ ]: non-standard residue; d: D form. The star is where a group is joined. AllylGly = C=CC[CH](N)C(=O)O; Boc = CC(C)(C)OC(=O)*; OtBu = CC(C)(C)O* A value given as a limit tells only on which side of the number the result lay.

Regarding `CC(C(=O)NCCNC(=O)CCCC(=O)N(C)O)C(=O)NCCNC(=O)CCCC(=O)N(C)O`, the EC50 – broadly, the concentration that produces a half-maximal response – is over 200 µM and the IC50 – broadly, the point on the concentration scale where inhibition reaches its midpoint – was over 200 µM.

In the case of `COc1ccc2cc(C(=O)NCCCNC(=O)c3ccc4cc(OC)ccc4c3)ccc2c1`, the outcome was inactive.

As for `CC1NC(=O)CC(c2ccccc2)N(N=O)C1c1ccccc1` (centres undefined), the outcome was inactive.

For `CCOC(=O)NN1C(=O)c2cccc3c([N+](=O)[O-])ccc(c23)C1=O`, the EC50 is over 2 µM and the IC50 came out at 0.224 µM.

For `NC(=O)C(=O)C1C(=O)N(c2ccccc2)N=C1N` (centres undefined), the result was inactive.

For `O=C1C(=O)C(CCCO)(CCCO)CCCCCCCCC1(CCCO)CCCO`, the EC50 was over 200 µM and the IC50 worked out at 102 µM.

As for `Cc1cc(C(O)(c2cc(C)c(O)c(C(=O)O)c2)c2cc(C)c(O)c(C(=O)O)c2)cc(C(=O)O)c1O`, the EC50 was over 3.72 µM and the IC50 was over 3.72 µM.

In the case of `CN(C)Cc1cc(C(=O)/C=C/c2ccc(F)cc2)cc(CN(C)C)c1O`, the EC50 is over 200 µM and the IC50 stood at 19.1 µM.

For `N#Cc1ccc(NC(=O)C(CC(=O)OCc2ccccc2)NC(=O)OCc2ccccc2)cc1` (centres undefined), the EC50 was over 200 µM and the IC50 was over 200 µM.

For the molecule `CCCNC(=O)Cn1c2c(c3ccccc31)CCCC2`, the EC50 is over 200 µM and the IC50 was determined as 69.2 µM.

Take `C=CC1(C)OC2(CCN(C(=O)OCC)CC2)OC1C` (centres undefined): the EC50 was over 200 µM and the IC50 is 123 µM.

For the molecule `O=[N+]([O-])c1ccc(Sc2c3ccccc3nc3ccccc23)nc1`, the EC50 is over 200 µM and the IC50 turned out to be 5.25 µM.

Consider `COC(=O)C1=C(OC)C(C(=O)OC)[C@@]2(C)C(C(=O)OC)=C(OC)C(C(=O)OC)[C@@]12C` (some centres undefined), for which the EC50 was over 417 µM and the IC50 is over 417 µM.

In the case of `O=C1Sc2ccccc2Cn2cccc21`, the EC50 was 186 µM and the IC50 was over 200 µM.

Turning to `SC1N=C(c2ccccc2)N2C(S)N=C(c3ccccc3)N12` (centres undefined), the EC50 is over 200 µM and the IC50 was 83.2 µM.

Consider `CCC(C)C1NC(=O)C2CCCN2C(=O)CNC(=O)C(C)NC(=O)C(Cc2ccccc2)NC(=O)C(C(C)C)NC1=O` (centres undefined) (cyclo(GPIVFA); configuration not given here), for which the outcome was inactive.

Take `Cc1ccnc2nc3[nH]c4ccccc4c3cc12`: the EC50 was over 126 µM and the IC50 is over 126 µM.

Take `C#CCCCCC#CC1CCCC1C1=CC(=O)c2ccccc21` (centres undefined): the EC50 was over 100 µM and the IC50 is 6.03 µM.

On to `CCc1c(Cc2cc(C)cc(C)c2)n(COCCC[Se]c2ccccc2)c(=O)[nH]c1=O`, for which the EC50 is 0.407 µM and the IC50 was found to be 12 µM.

`O=C(N/N=C\c1cccs1)c1ccncc1`: the EC50 is over 200 µM and the IC50 was over 200 µM.

On to `O=C(O)CCCCCCCc1cccc(OCCO)c1`, for which the EC50 was over 200 µM and the IC50 was over 200 µM.

For `C=CCC(NC(=O)C(CC(=O)OC(C)(C)C)NC(=O)OC(C)(C)C)C(=O)OC` (centres undefined) (Boc-Asp(OtBu)-[AllylGly]-OMe; configuration not given here), the EC50 was over 200 µM and the IC50 is 97.7 µM.

Consider `Cc1ccc([N+](=O)[O-])cc1P(=O)(O)c1cc([N+](=O)[O-])ccc1C`, for which the EC50 is over 200 µM and the IC50 is over 200 µM.

For the molecule `CC(=O)Oc1ccccc1C(=O)O`, the EC50 was over 380 µM and the IC50 is over 380 µM.

On to `NS(=O)(=O)c1ccc(NC(=O)c2cccc3c(Nc4ccc(S(N)(=O)=O)cc4)c4ccccc4nc23)cc1`, for which the EC50 was over 34.7 µM and the IC50 stood at 26.3 µM.

As to `CC1(CC(=O)OC(C#C[Si](C)(C)C)Cc2ccccc2)OCCO1` (centres undefined), the EC50 is over 200 µM and the IC50 stood at 102 µM.

Regarding `O=C(CSC1=NNC2(C(=O)N1)c1ccccc1-c1ccccc12)NC(=S)Nc1ccccc1`, the EC50 was over 200 µM and the IC50 stood at 25.7 µM.

Regarding `CCN(CC)CCN1C(=O)c2cccc3c(N)c(OC)cc(c23)C1=O`, the EC50 was over 200 µM and the IC50 came to 3.39 µM.

Consider `CC(=O)/C(N=Nc1ccc(-n2c(C)nc3ccc(Br)cc3c2=O)cc1)=C(/C)O`, for which the EC50 is over 200 µM and the IC50 was 148 µM.

For the molecule `O=C1C(Cl)C(c2cccc([N+](=O)[O-])c2)N1n1cnc2ccccc2c1=O` (centres undefined), the EC50 is over 10 µM and the IC50 was over 10 µM.

For `O=C1C2C=CC(C2)C(c2ccc(O)cc2)N1O` (centres undefined), the EC50 is over 776 µM and the IC50 was over 776 µM.

For the molecule `Cc1cnc2c(c1)C(=O)N(c1ccc([N+](=O)[O-])cc1)S2(=O)=O`, the EC50 is over 200 µM and the IC50 was found to be 17.4 µM.

Take `C=C(C)C1CC2=C(O1)C(=O)c1ccccc1C2=O` (centres undefined): the EC50 was over 200 µM and the IC50 came out at 2 µM.

On to `CC(=O)N(CN1C(=O)CCC1C(=O)O)c1cccc(O)c1` (centres undefined), for which the outcome was inactive.

Take `Cc1ccc(S(=O)(=O)N/N=C2\C=CC3(CC2)C(=O)N(I)c2ccccc23)cc1` (centres undefined): the outcome was inactive.

For `O=C(c1ccccc1)N1C2CCC1C(C(F)(F)F)=C2C(F)(F)F`, the outcome was inactive.

With `Cc1ncc([N+](=O)[O-])n1CCNC(=O)Cn1c([N+](=O)[O-])cnc1C`, the EC50 was over 200 µM and the IC50 is over 200 µM.

As for `Nc1cc(I)c2cccnc2c1O`, the EC50 is over 209 µM and the IC50 stood at 1.26 µM.

For `COc1cc2c(c(Oc3ccc(C)cc3)c1)CN(C)CC2`, the EC50 was over 200 µM and the IC50 is 75.9 µM.

`Clc1cc(Br)c2c3c(c(Br)cc(Cl)c13)C(Br)=C2Br`: the EC50 was over 200 µM and the IC50 stood at 20 µM.

As for `COc1ccccc1C1CC(c2ccccc2)=Nc2ccccc2S1` (centres undefined), the EC50 is over 42.7 µM and the IC50 was 8.13 µM.

In the case of `CN1CCN(c2cc3nsnc3c3nsnc23)CC1`, the EC50 was over 200 µM and the 50% inhibitory concentration (IC50) was over 200 µM.

As for `Cn1c(N=P(c2ccccc2)(c2ccccc2)c2ccccc2)c([N+](=O)[O-])c(=O)n(C)c1=O`, the result was inactive.

As for `CC(=O)Nc1cc(S(=O)(=O)O)cc2cc(S(=O)(=O)O)cc(O)c12`, the EC50 is over 200 µM and the IC50 was over 200 µM.

With `CC(=O)NC(=O)NC1=NCCC(=O)N1CCc1c[nH]c2ccccc12`, the EC50 is over 200 µM and the IC50 was over 200 µM.

In the case of `CC(=O)OC1CC2C(=O)C(=O)C1(C)C2(C)C` (centres undefined), the EC50 is over 200 µM and the IC50 is over 200 µM.

Take `CCOC(=O)c1c(C)[nH]c(=S)c(C#N)c1-c1ccc(Cl)cc1`: the EC50 was over 200 µM and the IC50 came out at 43.7 µM.

In the case of `CC(/C=C/C(O)=C1/C(=O)CNC1=O)=C\[C@@H](C)[C@H]1O[C@@]2(C)O[C@H](C(=O)[C@@H]3O[C@@]32C)[C@@H]1C`, the EC50 was over 200 µM and the IC50 came out at 91.2 µM.

As to `Nc1nc(Cl)cc(NCC2(CO)CCC2)n1`, the EC50 was over 200 µM and the IC50 came out at 191 µM.

Turning to `O=[N+]([O-])c1c(/C=N/Nc2ccccc2)oc(-c2ccc3c(c2)OCO3)c1-c1ccc2c(c1)OCO2`, the EC50 was over 21.4 µM and the IC50 came to 3.98 µM.

With `CCOC(=O)C(=Cc1cccc(C#N)c1)C(=O)OCC`, the EC50 is over 132 µM and the IC50 came to 8.51 µM.

With `COc1ccc2nc(NC(=O)C(=O)C(C#N)c3ccc(CC#N)cc3)sc2c1` (centres undefined), the result was inactive.

As for `CCCCCCCCCCCCCCC(C)CCC(=O)O` (centres undefined), the outcome was inactive.

For `CO[C@@H]1C2=CC=CC=C[C@H]2n2c(=O)n(C)c(=O)n21`, the EC50 was over 525 µM and the IC50 turned out to be 79.4 µM.

With `COc1ccc(CCNC(=O)/C(=C\c2ccc3c(c2)OCO3)NC(=O)c2ccccc2)cc1OC`, the EC50 is over 200 µM and the IC50 was over 200 µM.

Consider `CC(CCC(=O)O)[C@H]1CCC2[C@H]3C(CC[C@@]21C)[C@@]1(C)CCC(O)C[C@H]1C[C@@H]3O` (some centres undefined), for which the EC50 is over 200 µM and the IC50 is over 100 µM.

With `NC12CC3CC(CC(C3)C1)C2`, the EC50 was over 200 µM, the outcome was inactive and the IC50 is over 200 µM.

As to `COC(=O)c1ccc(OCc2ccc3nc(-c4ccccc4)c(Cl)nc3c2)cc1`, the EC50 was over 200 µM and the IC50 was over 200 µM.

Regarding `O=C(O)CC(c1ccccc1)c1ccccc1`, the EC50 is over 794 µM and the IC50 turned out to be 437 µM.

Consider `O=C(O)c1n[nH]nc1Cl`, for which the EC50 is over 200 µM and the IC50 was over 200 µM.

With `CSC(=S)c1ccc(C(=S)SC)cc1`, the outcome was inactive.

For the molecule `O=c1c2ccccc2oc2nccnc12`, the result was inactive.

As to `OCC(O)COc1ccc(Br)cc1` (centres undefined), the EC50 is over 1000 µM and the IC50 worked out at 646 µM.

As to `CC(=O)OC1CC2C3(C)CC4O[C@@](C)(O)CC(C)C4[C@@]3(C)CC[C@]23C[C@@]32CC[C@H](OC3OCC(O)C(O)C3O)C(C)(C)C12` (some centres undefined), the EC50 is over 53.7 µM and the IC50 was found to be 22.4 µM.

`CCOC(=O)c1ccc(-n2[nH]nc(C(N)=O)c2=O)cc1`: the EC50 was over 200 µM and the IC50 is over 200 µM.

Regarding `Cc1cc(C2CCCCC2)n(O)c(=O)c1`, the outcome was inactive.

Take `Cn1c(=O)nc2n(-c3cccc(Br)c3)c3ccccc3nc-2c1=O`: the outcome was inactive.

Turning to `O=C(O)c1ccc(C2SCc3nc4ccccc4n32)cc1` (centres undefined), the EC50 was over 200 µM and the IC50 is over 200 µM.

With `CCOC(=O)/C(C#N)=C\Sc1ccccc1`, the result was inactive.

Regarding `CN(N=O)C(=O)NC(C=O)C(O)C(O)C(O)CO` (centres undefined), the EC50 was over 200 µM and the IC50 was over 200 µM.

Take `CNc1ccccc1S(=O)(=O)c1ccccc1Br`: the EC50 was over 200 µM and the IC50 amounted to 18.2 µM.

For `CN(C(=N)c1ccccc1)c1ccccc1`, the outcome was inactive.

For the molecule `Nc1c(Br)cc2c([nH]c(=O)c3cc(Br)ccc32)c1Br`, the EC50 is over 200 µM and the IC50 was found to be 38.9 µM.

With `C[C@]12CCC(=O)C(O)=C1CCC2=O`, the result was inactive.

Regarding `CCN(CC)CCCCCCNc1cc(OC)cc2c(C)ccnc12`, the EC50 is over 603 µM and the IC50 amounted to 19.5 µM.
